The target of series [1] is T1, IDO1 (Homo sapiens, UniProt P14902). In words: IDO1 degradation by western blot in IFNγ-stimulated U87 cells. Particulars: for effect of co-treatment on NU223612-induced IDO1 degradation: combined with NU223612; for effect on IDO1 protein levels: U87 and GBM43 GBM cells in vitro, western blot. (In general: A western blot detects proteins with antibodies after separation by electrophoresis.)

In series [2] the test system is IDO1. Put plainly: IDO1 degradation by western blot in further cancer cell lines. The class given is cell-based, human. Particulars: CD18, PANC-1, OVCAR5, SKOV3, PC3, GL261 IDO1-O/E; 24 h.
Series [3] concerns the target TDO2 (Homo sapiens, UniProt P48775). Put plainly: TDO2 western blot in U87 cells. Particulars: 24 h. The class given is cell-based.
The target of series [4] is T1, IDO1. Put plainly: IDO1 degradation by western blot in IFNγ-stimulated GBM43 cells. Particulars: 24 h, 0.01-30 μM, n = 3.
Series [5] has as its target IDO1 (Mus musculus, UniProt P28776). Put plainly: Pharmacodynamics: IDO1 western blot of intracranial GL261 mIDO1 tumors. Particulars: GL261 mIDO1 cDNA tumors, single 25 mg/kg ip.
A short description of series [6]: In vivo toxicity in C57BL/6 mice.
Series [7] concerns IDO2. Put plainly: IDO1/IDO2 mRNA expression in GL261 cells. The class given is cell-based, mouse. Particulars: 10 µM, 24 hours.
For series [8], the system named is NF-κB p65 DNA binding activity. In words: NF-κB. The class given is cell-based, human. Particulars: U87 nuclear extracts, 10 μM.
Series [9] addresses IDO1 enzyme activity (Homo sapiens, UniProt P14902). In words: Kynurenine assay. The class given is cell-based. Particulars: IFNγ-stimulated GBM cells (U87, GBM43), 24 h.
For series [10], the system named is NF-κB p65 phosphorylation. Put plainly: NF-κB p65 phosphorylation by western blot. The class given is cell-based, human. Particulars: IFNγ-stimulated U87, GBM43 or MDA-MB-231 cells.
Series [11] has as its system GL261-luc. cells. In words: Survival of mice with intracranial GL261-luc. tumors. Particulars: 25 mg/kg once per day Monday-Friday up to 3 weeks, from day 14 post-injection. The class given is in vivo, C57BL/6 mice.
Series [12] addresses T1, IDO1. Put plainly: IDO1 degradation by western blot in patient PBMCs. It is filed as cell-based. Particulars: GBM patient-isolated PBMCs, 50 ng/mL IFNγ.
Series [13] has as its target T1, IDO1. In words: IDO1 ubiquitination assay in U87 IDO1-FLAG cDNA-expressing cells. It is filed as cell-based. Particulars: immunoprecipitation, vs DMSO.
In series [14] the target is T1, IDO1. Put plainly: BLI binding of compounds to immobilized IDO1.
Series [15] in a line: Pharmacokinetics in C57BL/6 mice. The class given is in vivo. Particulars: mouse, single 25 mg/kg ip.
For series [16], the target named is NU223612/IDO1/CRBN ternary complex (Homo sapiens, UniProt P14902+Q96SW2). In words: BLI of NU223612 pre-incubated with CRBN binding to IDO1.
Sequence of NU223612/IDO1/CRBN ternary complex (P14902 whole entry): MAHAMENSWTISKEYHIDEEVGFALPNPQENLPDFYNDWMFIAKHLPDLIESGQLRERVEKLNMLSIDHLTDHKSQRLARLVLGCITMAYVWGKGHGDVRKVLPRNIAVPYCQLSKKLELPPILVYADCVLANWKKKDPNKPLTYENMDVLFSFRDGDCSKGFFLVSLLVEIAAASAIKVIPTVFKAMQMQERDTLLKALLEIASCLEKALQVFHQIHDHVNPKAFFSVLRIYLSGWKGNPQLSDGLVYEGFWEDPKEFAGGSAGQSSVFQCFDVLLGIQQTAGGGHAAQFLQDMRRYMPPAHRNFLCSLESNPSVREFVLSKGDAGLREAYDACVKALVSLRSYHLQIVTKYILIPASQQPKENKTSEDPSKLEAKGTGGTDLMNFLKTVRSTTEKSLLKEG
Sequence of NU223612/IDO1/CRBN ternary complex (Q96SW2 whole entry): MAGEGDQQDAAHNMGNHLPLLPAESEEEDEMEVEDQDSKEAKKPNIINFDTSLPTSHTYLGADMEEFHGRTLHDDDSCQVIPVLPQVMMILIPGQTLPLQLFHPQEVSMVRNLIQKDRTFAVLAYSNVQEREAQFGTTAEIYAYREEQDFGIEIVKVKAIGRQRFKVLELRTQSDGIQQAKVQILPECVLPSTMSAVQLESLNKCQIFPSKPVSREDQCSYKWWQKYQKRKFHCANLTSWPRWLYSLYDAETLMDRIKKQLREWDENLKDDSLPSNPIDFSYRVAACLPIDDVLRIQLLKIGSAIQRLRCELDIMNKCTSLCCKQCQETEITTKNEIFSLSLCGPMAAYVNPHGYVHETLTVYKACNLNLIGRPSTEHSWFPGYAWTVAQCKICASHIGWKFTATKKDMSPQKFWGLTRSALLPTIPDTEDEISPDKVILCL
Series [17] concerns the target CRBN (Homo sapiens, UniProt Q96SW2). In words: BLI binding of compounds to immobilized CRBN. Particulars: steady-state, 30 °C, PBS with 0.5% DMSO.

Where a SMILES comes first, the peptide text is derived from it. The star is where a group is joined. Cbz = O=C(OCc1ccccc1)*

T1 sequence (P14902 whole entry): as the sequence (P14902 whole entry) above
Sequence of IDO1 (Mus musculus, UniProt P28776) (P28776 whole entry): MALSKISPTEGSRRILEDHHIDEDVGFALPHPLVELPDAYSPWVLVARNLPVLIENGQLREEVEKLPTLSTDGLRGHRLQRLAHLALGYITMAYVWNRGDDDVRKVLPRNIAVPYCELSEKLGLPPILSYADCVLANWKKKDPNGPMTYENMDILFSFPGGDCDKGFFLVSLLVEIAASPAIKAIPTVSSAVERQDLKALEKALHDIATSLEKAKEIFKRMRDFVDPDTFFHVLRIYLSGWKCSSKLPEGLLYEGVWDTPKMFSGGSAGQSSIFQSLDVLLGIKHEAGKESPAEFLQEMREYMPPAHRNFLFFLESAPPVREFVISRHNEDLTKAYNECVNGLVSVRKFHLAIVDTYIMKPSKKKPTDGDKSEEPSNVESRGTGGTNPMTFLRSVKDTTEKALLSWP
Sequence of CRBN (Q96SW2 whole entry): as the sequence (Q96SW2 whole entry) above
Sequence of IDO1 enzyme activity (P14902 whole entry): as the sequence (P14902 whole entry) above
Sequence of TDO2 (P48775 whole entry): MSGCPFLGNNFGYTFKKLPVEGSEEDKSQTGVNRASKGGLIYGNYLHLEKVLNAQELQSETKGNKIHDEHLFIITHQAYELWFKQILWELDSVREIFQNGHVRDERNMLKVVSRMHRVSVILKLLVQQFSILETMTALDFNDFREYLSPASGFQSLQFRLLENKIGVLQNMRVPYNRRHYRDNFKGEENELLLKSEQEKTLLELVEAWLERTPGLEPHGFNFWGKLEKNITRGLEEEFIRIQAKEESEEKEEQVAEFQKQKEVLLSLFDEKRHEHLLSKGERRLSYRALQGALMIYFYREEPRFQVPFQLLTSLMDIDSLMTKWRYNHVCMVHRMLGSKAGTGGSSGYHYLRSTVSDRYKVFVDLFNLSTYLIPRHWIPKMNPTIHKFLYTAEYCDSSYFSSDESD

Consider `CC(C)C[C@@H](C=O)NC(=O)[C@H](CC(C)C)NC(=O)[C@H](CC(C)C)NC(=O)OCc1ccccc1` [MG132, reference compound] (Cbz-Leu-Leu-Leu-aldehyde), for which the “effect of co-treatment on NU223612-induced IDO1 degradation” value in [1] (U87 cells) is given as “ablation of IDO1-PROTAC-mediated IDO1 protein degradation”.
The same measure, in the same setting: next, `NS(=O)(=O)OC[C@@H]1C[C@@H](n2ccc3c(N[C@H]4CCc5ccccc54)ncnc32)C[C@@H]1O` [MLN4924, reference compound]: “ablation of IDO1-PROTAC-mediated IDO1 protein degradation”.
For orientation: DC50 means the concentration at which degradation of the target reaches its halfway point. A high value points to a less potent degrader. As a reminder, the Kd is the equilibrium constant for the complex coming apart. A low value points to a tighter complex. As to `C[C@@H](C(=O)Nc1ccc(OC2CCN(C(=O)CCOCCOCCNc3cccc4c3C(=O)N(C3CCC(=O)NC3=O)C4=O)CC2)cc1)[C@H]1CC[C@@H](c2ccnc3ccc(F)cc32)CC1` (stereo partly drawn) [NU223612, (2R)-N-(4-((1-(3-(2-(2-((2-(2,6-Dioxopiperidin-3-yl)-1,3-dioxoisoindolin-4-Yl)amino)ethoxy)ethoxy)propanoyl)piperidin-4-yl)oxy)phenyl)-2-((1S,4S)-4-(6-fluoroquinolin-4-yl)cyclohexyl)propenamide], in series [2], the “IDO1 degradation in other cancer cell types” value is reported as “dose-dependently degrades IDO1 in all of the human cancer cell types that were analyzed”. Further, in series [3], the “effect on TDO2 protein levels” value is listed as “did not decrease TDO2 protein levels”. In addition, the DC50 in [4] came out at 544 nM; in [1] (U87 cells, IFNγ-stimulated, 24 h, 0.01-30 μM, n = 3), 329 nM. The “time IDO1 protein remains low in intracranial tumors” value in series [5] was “up to 24 h”. The “decrease of IDO1 protein in intracranial tumors” value in series [5] (within 2 h post-treatment) is given as more than 70%. The mortality result in series [6] (100 mg/kg ip. 5 days/week for 3 weeks) is reported as “increased mortality”. The “precipitation of compound in the abdomen” value in series [6] (50 and 100 mg/kg doses ip.) was “precipitation of NU223612 observed around the intestines, liver, and pancreas”. The “accumulation in serum and brain tissue” value in series [6] (after 3 weeks ip., mice without brain tumors, mass spectrometry) was “dose-dependent accumulation of NU223612 in serum and brain tissue”. Also, the body-weight changes entry in series [6] (ip. 5 days/week for 3 weeks, 10, 25, 50 or 100 mg/kg) is “did not result in significant body-weight changes at any dose”. For the same compound, the “IDO2 (and IDO1) mRNA expression levels” value in series [7] was “no significant NU223612 effects on glioma cell IDO2 expression levels”. The “NF-κB p65 transcription factor DNA binding activity” value in series [8] is “inhibits both IDO1-mediated tryptophan metabolism as well as IDO1 non-enzyme-mediated NF-κB p65 transcription factor DNA binding activity”. The “IDO1 enzyme activity (Kyn levels)” value in series [9] was “dose-dependently inhibits IDO1 enzyme activity”. Besides, the p65 phosphorylation result in [10] is given as “decreases p65 phosphorylation”. For the same compound, the “longer-term survival post-tumor cell injection” value in [11] is given as “up to 45 days”. Besides, in series [12], the “IDO1 degradation in PBMCs” value is given as “degrades IDO1 protein”. Further, in [13], the “ubiquitination of IDO1” value is “causes monoubiquitination of IDO1”. In addition, the koff in [14] (read-out: koff, NU223612/IDO1 binary complex) amounted to 0.042 s⁻¹; in [16] (read-out: koff, ternary NU223612/CRBN/IDO1 complex) it was 0.0015 s⁻¹. The kon in series [14] (read-out: kon, NU223612/IDO1 binary complex) worked out at 68900 M⁻¹ s⁻¹; in [16] (read-out: kon, ternary NU223612/CRBN/IDO1 complex), 12800 M⁻¹ s⁻¹. In series [15], the “Cmax, brain” value was found to be 2000 nM. Moreover, the “effect on IDO1 protein levels” value in series [1] was “decreases IDO1 protein levels dose-dependently”. Also, the “degradation of catalytically inactive mutant IDO1” value in series [1] (U87 cells transfected with enzyme-null IDO1 cDNA, 24 h) is “facilitated protein degradation of IDO1 enzyme-dead protein”. The “IDO1 protein degradation at 100 nM” value in series [1] (U87 cells, 100 nM, 24 h) is “significant IDO1 protein degradation”. The “duration of IDO1 degradation after a single continuous treatment” value in series [1] (U87 cells, 1 and 10 μM) is “up to 72 h”. The “effect of washout after 24 h on IDO1 degradation” value in [1] (U87 cells, cultured without compound up to 48 h) was “did not affect the degradation of IDO1 protein”. Moreover, the “nuclear and cytoplasmic IDO1 degradation” value in [1] (U87 cells, subcellular fractions) was “equally degraded IDO1 protein levels in both the cytoplasmic and nuclear intracellular compartments”. The “duration of IDO1 degradation effect” value in series [1] (human GBM cells (U87, GBM43)) is “at least 96 h”. For the same compound, the “time at which IDO1 degradation began after treatment initiation” value in series [1] (human GBM cells (U87, GBM43)) came to 16 h. This compound also had a Kd in series [16] of 117 nM. The “cooperativity α = Kd binary/Kd ternary” value in series [16] worked out at 2.5.
Regarding `C[C@@H](C(=O)Nc1ccc(Cl)cc1)[C@H]1CC[C@@H](c2ccnc3ccc(F)cc32)CC1` [NU223618, reference compound], in [10], the p65 phosphorylation result is given as “neither NU226211 nor NU223618 inhibits NF-κB phosphorylation”.
As for `C[C@@H](C(=O)Nc1ccc(OC2CCN(C(=O)CCOCCOCCNc3cccc4c3C(=O)N(C3CCC(=O)N(C)C3=O)C4=O)CC2)cc1)[C@H]1CC[C@@H](c2ccnc3ccc(F)cc32)CC1` (stereo partly drawn) [NU226211, (2R)-2-((1S,4S)-4-(6-Fluoroquinolin-4-yl)cyclohexyl)-N-(4-((1-(3-(2-(2-((2-(1-methyl-2,6-dioxopiperidin-3-yl)-1,3-dioxoisoindolin-4-yl)amino)ethoxy)ethoxy)propanoyl)piperidin-4-yl)oxy)phenyl)propenamide], the p65 phosphorylation entry in series [10] is on record as “neither NU226211 nor NU223618 inhibits NF-κB phosphorylation”. The “ubiquitination of IDO1” value in [13] is “neither NU226211 nor NU223618 mediated the ubiquitination”. Further, the “effect on IDO1 protein levels” value in series [1] is listed as “neither NU226211 nor NU223618 decreases IDO1 protein levels”. In addition, in series [17], the “binding affinity (Kd) to CRBN” value is listed as “no measurable binding”.
As to `Nc1cccc2c1C(=O)N(C1CCC(=O)NC1=O)C2=O` (stereo not shown) [pomalidomide, reference compound], in series [1] (U87 cells), the “effect of co-treatment on NU223612-induced IDO1 degradation” value is listed as “ablation of IDO1-PROTAC-mediated IDO1 protein degradation”.

(Values after paper PMC9743093 (Journal of Medicinal Chemistry, 2022).)
